Structures can show the parent of a compound that is named as a salt.
target: T1, BACE1 enzyme (Homo sapiens, UniProt P56817); experiment: Radioligand displacement assay with a radiolabeled BACE inhibitor on HEK293-9B.A1 cell homogenate; type: binding; details: displacement of 1 nM tritiated radioligand, HEK293-9B.A1 homogenate, pH 5.0, 1.5 hr at 25° C.; read-out: Activity Rating (activity based on IC50 values)
T1 construct: The HEK293-9B.A1 cell line, which overexpresses the BACE1 enzyme, was derived from HEK293 cells; endogenous in cells; washed 48,000 x g pellet of the cell homogenate
Description: Radioligand displacement assays with a radiolabeled BACE inhibitor (WO 2004 013098, compound 3, where the methoxy group is substituted for C(^3H)3) were carried out using standard methods (Keen, M. (1999) in Receptor Binding Techniques (Walker, J. M. ed) p. 106 Humana Press, Totowa, N.J.). The HEK293-9B.A1 cell line, which overexpresses the BACE1 enzyme, was derived from HEK293 cells (Simmons, N. L. (1990) A cultured human renal epitheloid cell line responsive to vasoactive intestinal peptide. Exp. Physiol. 75:309-19.) by RAGE™ (Harrington, J. J. et al. (2001) Creation of genome-wide protein expression libraries using random activation of gene expression. Nat. Biotechnol. 19:440-5; U.S. Pat. Nos. 6,410,266 and 6,361,972). T225 flask cultures of HEK293-9B.A1 were grown to 80% confluency in DMEM supplemented with 2 mM L-glutamine, 10 μg/ml penicillin, 10 μg/ml streptomycin, 3 μg/ml puromycin, 100 nM methotrexate, and 10% fetal bovine serum (Invitrogen, Carlsbad, Calif.), harvested, and resuspended at 2×10^8 cells per 10 ml of lysis buffer consisting of 50 mM HEPES pH 7.0 containing a protease inhibitor cocktail of AEBSF 104 μM, aprotinin 80 nM, leupeptin 2 μM, bestatin 4 μM, pepstatin A 1.5 μM, and E-64 1.4 μM (0.1% of protease inhibitor cocktail P8340, Sigma-Aldrich, St. Louis, Mo.) at 4° C. The resuspended cells were homogenized using a Polytron (Brinkman, Westbury, N.Y.) at setting 6 for 10 sec., then centrifuged at 48,000×g for 10 min. The resulting pellet was washed by repeating the resuspension, homogenization and centrifugation steps. The final pellet was resuspended in buffer at 4° C. to yield a total protein concentration of 5 mg/ml, then aliquots were frozen in liquid nitrogen for further storage at −70° C. Immediately before carrying out a binding assay, an aliquot of cell homogenate was thawed and diluted to a concentration of 100 μg/ml in assay buffer consisting of 50 mM HEPES pH 5.0 and 0.1% CHAPSO. Assays were initiated in polypropylene 96-well plates (Costar, Cambridge, Mass.) by the addition of 200 μl of cell homogenate to 50 μl of assay buffer containing 1 nM radioligand (WO 2004 013098, compound 3, where the methoxy group is substituted for C(^3H)3: 80 Ci/mMol) and various concentrations of unlabelled compounds, and incubated for 1.5 hr. at 25° C. Separation of bound from free radioligand was by filtration on GFF glass fiber filters (Innotech Biosystems International, Lansing, Mich.) using an Innotech cell harvester.

T1 sequence (P56817 46-501): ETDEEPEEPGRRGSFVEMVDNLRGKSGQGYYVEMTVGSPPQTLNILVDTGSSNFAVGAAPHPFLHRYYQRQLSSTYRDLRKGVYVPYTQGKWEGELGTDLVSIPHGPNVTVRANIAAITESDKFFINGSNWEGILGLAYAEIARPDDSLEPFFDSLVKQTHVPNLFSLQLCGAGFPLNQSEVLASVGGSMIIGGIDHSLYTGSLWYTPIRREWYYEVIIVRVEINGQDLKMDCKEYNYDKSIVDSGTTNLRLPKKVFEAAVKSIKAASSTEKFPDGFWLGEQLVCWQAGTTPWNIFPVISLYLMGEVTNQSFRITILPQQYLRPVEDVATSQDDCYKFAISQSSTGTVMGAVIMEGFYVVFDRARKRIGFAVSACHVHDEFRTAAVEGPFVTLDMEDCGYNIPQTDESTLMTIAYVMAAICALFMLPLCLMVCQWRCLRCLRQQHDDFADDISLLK

| Structure (SMILES) | IC50 [nM] |
| --- | --- |
| C=CCO/N=C(\C)c1cc(C(=O)N[C@@H](Cc2cc(F)cc(F)c2)[C@H](O)CNCc2cccc(OC)c2)cc(S(C)(=O)=O)c1 [Example 21, N-((2S,3R)-4-(3-methoxybenzylamino)-1-(3,5-difluorophenyl)-3-hydroxybutan-2-yl)-3-((E)-1-(allyloxyimino)ethyl)-5-(methylsulfonyl)benzamide TFA salt] | 100 to 1000 |
| COc1cccc(CNC[C@@H](O)[C@H](Cc2cc(F)cc(F)c2)NC(=O)c2cc(C(C)=O)cc(N3CCCCS3(=O)=O)c2)c1 [Example 22, N-[(1S,2R)-1-(3,5-difluoro-benzyl)-2-hydroxy-3-(3-methoxy-benzylamino)-propyl]-3-(1,1-dioxo-1λ^6-[1,2]thiazinan-2-yl)-5-acetyl-benzamide TFA salt] | < 100 |
| COc1cccc(CNC[C@@H](O)[C@H](Cc2cc(F)cc(F)c2)NC(=O)c2cc(C(C)O)cc(N3CCCCS3(=O)=O)c2)c1 (stereo partly drawn) [Example 23, N-[(1S,2R)-1-(3,5-difluoro-benzyl)-2-hydroxy-3-(3-methoxy-benzylamino)-propyl]-3-(1,1-dioxo-1λ^6-[1,2]thiazinan-2-yl)-5-(1-hydroxy-ethyl)-benzamide TFA salt] | < 100 |
| CO/N=C(\C)c1cc(C(=O)N[C@@H](Cc2cc(F)cc(F)c2)[C@H](O)CNCc2cccc(OC)c2)cc(N2CCCCS2(=O)=O)c1 [Example 24, N-[(1S,2R)-1-(3,5-difluoro-benzyl)-2-hydroxy-3-(3-methoxy-benzylamino)-propyl]-3-(1,1-dioxo-1λ^6-[1,2]thiazinan-2-yl)-5-{1-[(E)-methoxyimino]-ethyl}-benzamide TFA salt] | < 100 |
| COc1cccc(CNC[C@@H](O)[C@H](Cc2cc(F)cc(F)c2)NC(=O)c2cc(/C(C)=N/OCc3ccccc3)cc(N3CCCCS3(=O)=O)c2)c1 [Example 25, N-[(1S,2R)-1-(3,5-difluoro-benzyl)-2-hydroxy-3-(3-methoxy-benzylamino)-propyl]-3-(1,1-dioxo-1λ^6-[1,2]thiazinan-2-yl)-5-{1-[(E)-benzyloxyimino]-ethyl}-benzamide TFA salt] | < 100 |
| CCCO/N=C(\C)c1cc(C(=O)N[C@@H](Cc2cc(F)cc(F)c2)[C@H](O)CNCc2cccc(OC)c2)cc(N2CCCCS2(=O)=O)c1 [Example 26, N-[(1S,2R)-1-(3,5-difluoro-benzyl)-2-hydroxy-3-(3-methoxy-benzylamino)-propyl]-3-(1,1-dioxo-1λ^6-[1,2]thiazinan-2-yl)-5-{1-[(E)-propoxyimino]-ethyl}-benzamide TFA salt] | < 100 |
| COc1cccc(CNC[C@@H](O)[C@H](Cc2cc(F)cc(F)c2)NC(=O)c2cc(/C(C)=N/OCC(C)C)cc(N3CCCCS3(=O)=O)c2)c1 [Example 27, N-[(1S,2R)-1-(3,5-difluoro-benzyl)-2-hydroxy-3-(3-methoxy-benzylamino)-propyl]-3-(1,1-dioxo-1λ^6-[1,2]thiazinan-2-yl)-5-{1-[(E)-isobutoxyimino]-ethyl}-benzamide TFA salt] | 100 to 1000 |
| C=CCO/N=C(\C)c1cc(C(=O)N[C@@H](Cc2cc(F)cc(F)c2)[C@H](O)CNCc2cccc(OC)c2)cc(N2CCCCS2(=O)=O)c1 [Example 28, N-[(1S,2R)-1-(3,5-difluoro-benzyl)-2-hydroxy-3-(3-methoxy-benzylamino)-propyl]-3-(1,1-dioxo-1λ^6-[1,2]thiazinan-2-yl)-5-{1-[(E)-allyloxyimino]-ethyl}-benzamide TFA salt] | < 100 |
| COc1cccc(CNC[C@@H](O)[C@H](Cc2cc(F)cc(F)c2)NC(=O)c2cc(C(C)=O)cc(N(C)S(C)(=O)=O)c2)c1 [Example 29, N-((2S,3R)-4-(3-methoxybenzylamino)-1-(3,5-difluorophenyl)-3-hydroxybutan-2-yl)-3-acetyl-5-(N-methylmethan-2-ylsulfonamido)benzamide TFA salt] | 100 to 1000 |
| CO/N=C(\C)c1cc(C(=O)N[C@@H](Cc2cc(F)cc(F)c2)[C@H](O)CNCc2cccc(OC)c2)cc(N(C)S(C)(=O)=O)c1 [Example 30, N-((2S,3R)-4-(3-methoxybenzylamino)-1-(3,5-difluorophenyl)-3-hydroxybutan-2-yl)-3-((E)-1-(methoxyimino)ethyl)-5-(N-methylmethan-2-ylsulfonamido)benzamide TFA salt] | < 100 |
| COc1cccc(CNC[C@@H](O)[C@H](Cc2cc(F)cc(F)c2)NC(=O)c2cc(/C(C)=N/OCc3ccccc3)cc(N(C)S(C)(=O)=O)c2)c1 [Example 31, N-((2S,3R)-4-(3-methoxybenzylamino)-1-(3,5-difluorophenyl)-3-hydroxybutan-2-yl)-3-((E)-1-(benzyloxyimino)ethyl)-5-(N-methylmethan-2-ylsulfonamido)benzamide TFA salt] | < 100 |
| CCCO/N=C(\C)c1cc(C(=O)N[C@@H](Cc2cc(F)cc(F)c2)[C@H](O)CNCc2cccc(OC)c2)cc(N(C)S(C)(=O)=O)c1 [Example 32, N-((2S,3R)-4-(3-methoxybenzylamino)-1-(3,5-difluorophenyl)-3-hydroxybutan-2-yl)-3-((E)-1-(propoxyimino)ethyl)-5-(N-methylmethan-2-ylsulfonamido)benzamide TFA salt] | 100 to 1000 |
| COc1cccc(CNC[C@@H](O)[C@H](Cc2cc(F)cc(F)c2)NC(=O)c2cc(/C(C)=N/OCC(C)C)cc(N(C)S(C)(=O)=O)c2)c1 [Example 33, N-((2S,3R)-4-(3-methoxybenzylamino)-1-(3,5-difluorophenyl)-3-hydroxybutan-2-yl)-3-((E)-1-(isobutoxyimino)ethyl)-5-(N-methylmethan-2-ylsulfonamido)benzamide TFA salt] | 100 to 1000 |
| C=CCO/N=C(\C)c1cc(C(=O)N[C@@H](Cc2cc(F)cc(F)c2)[C@H](O)CNCc2cccc(OC)c2)cc(N(C)S(C)(=O)=O)c1 [Example 34, N-((2S,3R)-4-(3-methoxybenzylamino)-1-(3,5-difluorophenyl)-3-hydroxybutan-2-yl)-3-((E)-1-(allyloxyimino)ethyl)-5-(N-methylmethan-2-ylsulfonamido)benzamide TFA salt] | < 100 |
| COc1cccc(CNC[C@@H](O)[C@H](Cc2cc(F)cc(F)c2)NC(=O)c2cc(C(C)O)cc(N(C)S(C)(=O)=O)c2)c1 (stereo partly drawn) [Example 35, N-((2S,3R)-4-(3-methoxybenzylamino)-1-(3,5-difluorophenyl)-3-hydroxybutan-2-yl)-3-(1-hydroxyethyl)-5-(N-methylmethan-2-ylsulfonamido)benzamide TFA salt] | < 100 |
| COc1cccc(CNC[C@@H](O)[C@H](Cc2cc(F)cc(F)c2)NC(=O)c2cc(C(C)=O)cc(N(c3ccccc3)S(C)(=O)=O)c2)c1 [Example 36, N-((2S,3R)-4-(3-methoxybenzylamino)-1-(3,5-difluorophenyl)-3-hydroxybutan-2-yl)-3-acetyl-5-(N-phenylmethan-10-ylsulfonamido)benzamide TFA salt] | < 100 |
| COc1cccc(CNC[C@@H](O)[C@H](Cc2cc(F)cc(F)c2)NC(=O)c2cc(/C(C)=N/O)cc(N(c3ccccc3)S(C)(=O)=O)c2)c1 [Example 37, N-((2S,3R)-4-(3-methoxybenzylamino)-1-(3,5-difluorophenyl)-3-hydroxybutan-2-yl)-3-((E)-1-(hydroxyimino)ethyl)-5-(N-phenylmethan-10-ylsulfonamido)benzamide] | < 100 |
| CO/N=C(\C)c1cc(C(=O)N[C@@H](Cc2cc(F)cc(F)c2)[C@H](O)CNCc2cccc(OC)c2)cc(N(c2ccccc2)S(C)(=O)=O)c1 [Example 38, N-((2S,3R)-4-(3-methoxybenzylamino)-1-(3,5-difluorophenyl)-3-hydroxybutan-2-yl)-3-((E)-1-(methoxyimino)ethyl)-5-(N-phenylmethan-10-ylsulfonamido)benzamide] | < 100 |
| COc1cccc(CNC[C@@H](O)[C@H](Cc2cc(F)cc(F)c2)NC(=O)c2cc(/C(C)=N/OCc3ccccc3)cc(N(c3ccccc3)S(C)(=O)=O)c2)c1 [Example 39, N-((2S,3R)-4-(3-methoxybenzylamino)-1-(3,5-difluorophenyl)-3-hydroxybutan-2-yl)-3-((E)-1-(benzyloxyimino)ethyl)-5-(N-phenylmethan-10-ylsulfonamido)benzamide] | < 100 |
